Measured values as given in article PMC5065612, “A small molecule inhibitor of mutant IDH2 rescues cardiomyopathy in a D-2-hydroxyglutaric aciduria type II mouse model” (Journal of Inherited Metabolic Disease, 2016).

What was measured:
[1] = molecular target: T1, IDH2R140Q (isocitrate dehydrogenase 2) (Homo sapiens, UniProt P48735, R140Q); experiment: NADPH depletion end-point assay (diaphorase/resazurin), […] h preincubation, recombinant enzyme; format: biochemical
T1 construct: gene IDH2; IDH2R140Q homodimer, recombinant purified enzyme
T1 sequence (P48735 40-452 R140Q): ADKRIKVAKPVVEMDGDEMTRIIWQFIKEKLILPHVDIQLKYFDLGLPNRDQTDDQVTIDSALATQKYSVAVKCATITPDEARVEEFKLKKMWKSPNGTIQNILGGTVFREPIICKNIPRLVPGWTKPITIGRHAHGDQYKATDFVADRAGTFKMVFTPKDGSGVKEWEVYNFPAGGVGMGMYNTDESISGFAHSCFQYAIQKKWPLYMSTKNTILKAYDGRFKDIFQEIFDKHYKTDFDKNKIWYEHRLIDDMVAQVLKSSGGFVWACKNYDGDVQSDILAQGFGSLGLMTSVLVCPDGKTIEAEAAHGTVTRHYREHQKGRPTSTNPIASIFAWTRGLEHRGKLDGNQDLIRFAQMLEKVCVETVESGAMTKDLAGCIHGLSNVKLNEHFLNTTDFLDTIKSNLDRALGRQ

[2] = molecular target: T2, Idh2R140Q (mouse isocitrate dehydrogenase 2) (Mus musculus, UniProt P54071, R140Q); experiment: 2HG production in culture medium of knock-in ES cells, LC-MS; format: cell-based
T2 construct: gene Idh2; Idh2R140Q knock-in mouse embryonic stem cells
T2 sequence (P54071 40-452 R140Q): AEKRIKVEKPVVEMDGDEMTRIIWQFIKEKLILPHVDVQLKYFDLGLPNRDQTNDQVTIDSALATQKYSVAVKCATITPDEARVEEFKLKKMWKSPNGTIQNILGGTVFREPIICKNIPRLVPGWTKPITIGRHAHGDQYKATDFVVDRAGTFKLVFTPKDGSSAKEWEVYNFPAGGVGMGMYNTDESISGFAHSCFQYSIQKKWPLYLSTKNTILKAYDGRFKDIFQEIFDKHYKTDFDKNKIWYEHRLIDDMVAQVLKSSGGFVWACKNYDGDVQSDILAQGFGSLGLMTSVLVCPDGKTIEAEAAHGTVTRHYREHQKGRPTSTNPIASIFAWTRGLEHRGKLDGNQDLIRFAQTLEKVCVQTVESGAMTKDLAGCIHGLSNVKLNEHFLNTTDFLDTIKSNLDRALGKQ

IC50 [1]: 4 ± 0.2 nM
IC50 [2]: 5.4 ± 2.8 nM
SMILES: CC(C)Nc1nc(Nc2ccnc(C(F)(F)F)c2)nc(-c2cccc(C(F)(F)F)n2)n1 [AGI-026]
